# From patent US11492594B2, “Method for producing engineered heart muscle (EHM)” (GEORG-AUGUST-UNIVERSITÄT GÖTTINGEN STIFTUNG ÖFFENTLICHEN …, priority 2013, dated 2022)
# How the values were obtained:
# [1] = system: hEHM (human engineered heart muscle); experiment: hEHM formation and contractile force with varied matrix, basal medium and supplements; format: cell-based; settings: for force-generation of hEHM: 10 ng/ml added to serum-free medium, hES2; for hEHM formation and function by matrix component: contractile force at 2 mmol/L extracellular calcium
# Procedure: The inventors constructed hEHMs using a modified EHM-engineering protocol (Zimmermann et al. Circ Res 90: 223-230 (2002), incorporated herein by reference). Briefly, EHMs (reconstitution volume: 450 μl) were prepared by pipetting a mixture containing freshly dispersed ESC-derivatives (1×10^4-15×10^6 cells in Iscove-Medium with 20% fetal calf serum, 1% non-essential amino acids, 2 mmol/l glutamine, 100 μmol/l β-mercaptoethanol, 100 U/ml penicillin, and […]), pH-neutralized collagen type I from rat tails (0.4 mg/EHM), Matrigel™ (10% v/v; Becton Dickenson or tebu), and concentrated serum-containing culture medium (2× DMEM, 20% horse serum, 4% chick embryo extract, 200 U/ml penicillin, and […] streptomycin) in circular molds (inner/outer diameter: 2/4 mm; height: 5 mm) (Table 1). hEHM condensed quickly within the casting molds and were transferred onto static stretch devices (110% of slack length) (Zimmermann et al. Nat Med 12: 452-458 (2006), incorporated herein by reference) on culture day 3. Medium was changed every other day. hEHM culture under stretch was performed for 7 days.
# A protocol with reduced xenogenic components (Matrix protocol, Table 1) was established to enable pre-GMP hEHM. Cells were reconstituted in a mixture of pH-neutralized bovine collagen (Devros Medical, 0.4 mg/EHM), concentrated serum-containing culture medium (2× DMEM, 40% fetal calf serum, 200 U/ml penicillin, and […] streptomycin) and cultured in Iscove-Medium with 20% fetal calf serum, 1% non-essential amino acids, 2 mmol/l glutamine, 0.3 mmol/l ascorbic acid, 100 μmol/l β-mercaptoethanol, 100 U/ml penicillin, and 100 μg/ml streptomycin.
# To generate fully defined, serum-free EHM cells were reconstituted in a mixture of pH-neutralized bovine collagen (Devros Medical, 0.4 mg/EHM), concentrated serum-free medium medium (2× DMEM, 8% B27, 200 U/ml penicillin, and […] streptomycin) and cultured in Iscove-Medium with full 4% B27, 1% non-essential amino acids, 2 mmol/l glutamine, 0.3 mmol/l ascorbic acid, 20 ng/ml IGF-1, 10 ng/ml FGF2, 10 ng/ml VEGF, 5 ng/ml TGFb1 (culture day 0-3 only), and 100 U/ml penicillin, and 100 μg/ml streptomycin (Serum-free protocol, Table 1). B27 supplement contains vitamins (Biotin, DL Alpha Tocopherol, Acetate DL Alpha-Tocopherol, Vitamin A), proteins and enzymes (BSA, fatty acid free Fraction V, Catalase, Human Recombinant Insulin, Human Transferrin, Superoxide Dismutase), and other cell-supporting components (Corticosterone, D-Galactose, Ethanolamine, Glutathione (reduced), L-Carnitine, Linoleic Acid, Linolenic Acid, Progesterone, Putrescine, Sodium Selenite, and T3 (triodo-I-thyronine). Where indicated full B27 (Invitrogen, A1486701) was compared to B27 without antioxidants (Invitrogen, #10889038) and B27 without insulin (Invitrogen, #0050129SA). B27 supplement was replaced by a custom-made supplement consisting of Albumin, Transferrin, Ethanolamine, Sodium selenite, L-Carnitine HCl, Hydrocortisone, Fatty acid supplement, and Triiodo-L-thyronine (Table 2).
# (§1) The inventors analyzed force of contraction and twitch kinetics (contraction time: time from 50% to maximal contraction; relaxation time: time from maximal contraction to 50% relaxation) under isometric conditions as described before (Zimmermann et al. Circ Res 90: 223-230 (2002), incorporated herein by reference). Contraction frequency was assessed by light microcopy (unstimulated spontaneous contractions) immediately after removing EHMs from the incubator.
# [2] = system: human embryoid body (EB) cultures; experiment: Flow cytometry-based screen of media and supplements in 3D human embryoid body (EB) cultures; settings: for cardiomyocyte actinin expression (CM maturation): mean actinin fluorescence per cardiomyocyte; for cell death (sub-G1 fraction): compared to serum free medium without the factor or to other media, growth factors at above EC50 concentrations
# Procedure: EBs cultured in different medium conditions were made into a single cell suspension as described above. Cells were fixed in 70% ice cold ethanol under constant mixing. The cells were stained for sarcomeric actinin (Sigma) to label cardiomyocytes and DAPI to analyze nuclear DNA content and to exclude cell doublets. Cells were run on a LSRII Cytometer (BD). At least 10,000 live cells were analyzed. The following parameters were then analyzed, (1) cell death (percentage of cells in the sub-G1 fraction), (2) cardiomyocyte and non-myocyte percentage (Actinin-positive and negative cells, respectively) (3) Cardiomyocte maturation (mean actinin fluorescence), (4) cardiomyocyte and (5) non-myocyte size (based on sideward scatter area, SSC-A).
# [3] = system: hEHM (human engineered heart muscle); experiment: Spontaneous contraction frequency of hEHM by light microscopy; format: cell-based; settings: n=6
# Procedure: as §1
# [4] = system: hEHM (human engineered heart muscle); experiment: Isometric force of contraction and twitch kinetics of hEHM; format: cell-based
# Procedure: as §1
# [5] = compared to serum free medium without the factor
molecule,measurement,setting,value
VEGF,force-generation of hEHM,[1],able to enhance force-generation
same,cardiomyocyte actinin expression (CM maturation),[2],enhanced individual cardiomyocyte actinin expression
"CC(C)Cn1c(=O)n(C)c(=O)c2[nH]cnc21 [IBMX, 3-isobutyl-1-methylxanthine]",spontaneous beating rate,[3]; IBMX 100 μmol/l in addition to isoprenaline,1.6±0.1 Hz
Neuregulin-1,cell death (sub-G1 fraction),[2],caused substantial cell death
laminin,hEHM formation and function by matrix component,[1],did not yield additional benefit
fibronectin,hEHM formation and function by matrix component,[1],did not yield additional benefit
"IGF-1: peptide growth factor (Peprotech, AF-100-11)",cell death (sub-G1 fraction),[2],appeared to protect from cell death
[Ca+2] [calcium],maximal twitch mean force,"[4]; at 2.4 mmol/l calcium, n=17",130±13 μN
same,EC50,"[4]; increasing extracellular calcium, n=17",800 ± 40 µM
same,maximal force and isoprenaline response of hEHM in RPMI with added calcium,[1]; RPMI plus 0.8 mM CaCl (final free calcium 1.242 mmol/L) versus RPMI (0.424 mmol/L),lead to measurable maximal force and better responsiveness to isoprenalin
"TGFβ1: peptide growth factor (Peprotech, 100-21)",formation of functional EHM,[1]; addition to serum-free medium from day 0 to 3 (5 ng/ml),essential
same,"formation of functional EHM, prolonged treatment",[1]; prolonged treatment (culture day 0-10) versus day 0-3,did not yield an additional benefit
same,cardiomyocyte actinin expression (CM maturation),[2],enhanced individual cardiomyocyte actinin expression
"FGF-2: peptide growth factor (Peprotech, AF-100-18B)",force-generation of hEHM,[1],able to enhance force-generation
same,non-myocyte growth,[2]; [5],supported non-myocyte growth
same,cardiomyocyte cell size,[2]; sideward scatter area,increased cardiomyocyte cell size
"CC(C)NCC(O)c1ccc(O)c(O)c1 (stereo not shown) [isoprenaline, reference compound]",spontaneous beating frequency,"[3]; incubation with isoprenaline, hEHM at 10 days, baseline 0.8±0.05 Hz at 37° C.",1.2±0.1 Hz
same,relaxation time,"[4]; 1 μmol/l isoprenaline at 0.4 mmol/l extracellular calcium, n=12",113 ± 2.3 ms
same,increase in force of contraction,"[4]; 1 μmol/l isoprenaline at sub-EC50 extracellular calcium (0.4 mmol/l), n=12",47±12%
"TGFβ2: peptide growth factor (protein, UniProt P61812 303-414, looked up, Transforming growth factor beta-2) Transforming growth factor …: ALDAAYCFRNVQDNCCLRPLYIDFKRDLGWKWIHEPKGYNANFCAGACPYLWSSDTQHSRVLSLYNTINPEASASPCCVSQDLEPLTILYYIGKTPKIEQLSNMIVKSCKCS",overall effect in growth factor screen,[2]; [5],had no beneficial effect
"PDGF-BB: peptide growth factor (protein, UniProt P01127 82-190, looked up) Platelet-derived growth …: SLGSLTIAEPAMIAECKTRTEVFEISRRLIDRTNANFLVWPPCVEVQRCSGCCNNRNVQCRPTQVQLRPVQVRKIEIVRKKPIFKKATVTLEDHLACKCETVAAARPVT",cell death (sub-G1 fraction),[2],caused substantial cell death
"CT-1: peptide growth factor (Cardiotrophin-1) (protein, UniProt Q16619 1-201, looked up) Cardiotrophin-1: MSRREGSLEDPQTDSSVSLLPHLEAKIRQTHSLAHLLTKYAEQLLQEYVQLQGDPFGLPSFSPPRLPVAGLSAPAPSHAGLPVHERLRLDAAALAALPPLLDAVCRRQAELNPRAPRLLRRLEDAARQARALGAAVEALLAALGAANRGPRAEPPAATASAASATGVFPAKVLGLRVCGLYREWLSRTEGDLGQLLPGGSA",cell death (sub-G1 fraction),[2],caused substantial cell death
